Reference: patent US20220323406A1, “METHODS AND COMPOSITIONS FOR DIFFERENTIATING STEM CELLS” (Massachusetts Institute of Technology, priority 2019, published 2022)
Counter-ions that a name gives are not always drawn.

Assays:
[1] = test system: ENR+CD organoids (ISC to Paneth cell differentiation); assay: Primary screen: basal (non-stimulated) lysozyme secretion LYZ.NS, 2.5-D 384-well ENR+CD organoid differentiation; format: cell-based, mouse
Source text: (§1) High-throughput screening.

[2] = test system: ENR+CD organoids (ISC to Paneth cell differentiation); assay: Primary screen: CCh-stimulated lysozyme secretion LYZ.S, 2.5-D 384-well ENR+CD organoid differentiation; format: cell-based, mouse; settings: primary screen
Source text: as §1

[3] = test system: ENR+CD organoids; assay: Primary screen: ATP (CellTiter-Glo 3D, CTG) cell number/viability, 2.5-D 384-well ENR+CD organoids; settings: primary screen; for Z.CTG: standard z score;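 on all read-outs here: compounds given at plating and again on day 3 over a 6-day differentiation from ENR+CV stem-cell-enriched precursors, ATP measured on day 6, plate median as control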
[4] = primary screen, dose 0.08 uM, FC relative to plate median
[5] = primary screen, dose 0.08 uM, standard z score
[6] = primary screen, dose 0.40 uM, FC relative to plate median
[7] = primary screen, dose 0.40 uM, standard z score
[8] = primary screen, dose 2.00 uM, FC relative to plate median
[9] = primary screen, dose 2.00 uM, standard z score
[10] = primary screen, dose 10.00 uM, FC relative to plate median
[11] = primary screen, dose 10.00 uM, standard z score
[12] = dose 0.08 uM, FC relative to plate median
[13] = dose 0.40 uM, FC relative to plate median
[14] = dose 2.00 uM, FC relative to plate median
[15] = dose 10.00 uM, FC relative to plate median

SMILES	Dose.FC.LYZ.NS [1, 4]	Z.LYZ.NS [1, 5]	Dose.FC.LYZ.NS [1, 6]	Z.LYZ.NS [1, 7]	Dose.FC.LYZ.NS [1, 8]	Z.LYZ.NS [1, 9]	Dose.FC.LYZ.NS [1, 10]	Z.LYZ.NS [1, 11]	Dose.FC.LYZ.S [2, 12]	Dose.FC.LYZ.S [2, 13]	Dose.FC.LYZ.S [2, 14]	Dose.FC.LYZ.S [2, 15]	Dose.FC.CTG [3, 12]	Dose.FC.CTG [3, 13]	Dose.FC.CTG [3, 14]	Dose.FC.CTG [3, 15]	Dose.FC.LYZ.NS ([1]; primary screen, dose 0.08 uM)	Dose.FC.LYZ.NS ([1]; primary screen, dose 0.40 uM)	Dose.FC.LYZ.NS ([1]; primary screen, dose 2.00 uM)	Z.LYZ.NS (standard z score) ([1]; primary screen, dose 10.00 uM)	also measured
C#CCC(Cc1cnc2nc(N)nc(N)c2n1)c1ccc(C(=O)N[C@@H](CCC(=O)O)C(=O)O)cc1 (stereo partly drawn) [Pralatrexate]	−0.135 log2 fold change	−1.173	−0.162 log2 fold change	−1.413	−0.154 log2 fold change	−1.345	−0.148 log2 fold change	−1.292	−0.183 log2 fold change	−0.176 log2 fold change	−0.173 log2 fold change	−0.215 log2 fold change	−0.649 log2 fold change	−0.853 log2 fold change	−0.681 log2 fold change	−0.922 log2 fold change					
Cc1ccc(S(=O)(=O)NC(=O)NN2CC3CCCC3C2)cc1 (stereo not drawn) [Gliclazide]																	0.036 log2 fold change	0.032 log2 fold change	0.104 log2 fold change	−0.303	Dose.FC.LYZ.NS (log2 fold change) ([1]; primary screen, dose 10.00 uM): −0.035; Z.LYZ.NS ([1]; primary screen, standard z score, dose 0.08 uM): 0.313; Z.LYZ.NS ([1]; primary screen, standard z score, dose 0.40 uM): 0.278; Z.LYZ.NS ([1]; primary screen, standard z score, dose 2.00 uM): 0.909; Dose.FC.LYZ.S ([2]; dose 0.08 uM): 0.058 log2 fold change; Dose.FC.LYZ.S ([2]; dose 0.40 uM): 0.086 log2 fold change; Dose.FC.LYZ.S ([2]; dose 2.00 uM): −0.017 log2 fold change; Dose.FC.LYZ.S (log2 fold change) ([2]; dose 10.00 uM): −0.060; Dose.FC.CTG ([3]; dose 0.08 uM): 0.162 log2 fold change; Dose.FC.CTG ([3]; dose 0.40 uM): 0.054 log2 fold change; Dose.FC.CTG ([3]; dose 2.00 uM): 0.008 log2 fold change; Dose.FC.CTG (log2 fold change) ([3]; dose 10.00 uM): −0.092
CCn1c(N)c(C(=O)NC)c(=O)c2ccc(C#C[C@@](C)(O)COC)nc21 [SAR131675]	0.055 log2 fold change	0.483	0.089 log2 fold change	0.774	0.021 log2 fold change	0.181	−0.088 log2 fold change	−0.766	0.148 log2 fold change	0.096 log2 fold change	0.026 log2 fold change	0.000 log2 fold change	0.175 log2 fold change	−0.084 log2 fold change	0.071 log2 fold change	0.062 log2 fold change					Z.CTG ([3]; dose 0.08 uM): 0.419; Z.CTG ([3]; dose 0.40 uM): −0.201; Z.CTG ([3]; dose 2.00 uM): 0.169; Z.CTG ([3]; dose 10.00 uM): 0.149
N#CSc1cc(SC#N)c(N)nc1N [PR-619]	0.100 log2 fold change	0.872	0.051 log2 fold change	0.448	0.057 log2 fold change	0.495	−0.194 log2 fold change	−1.687	0.122 log2 fold change	0.047 log2 fold change	0.081 log2 fold change	−0.193 log2 fold change	0.054 log2 fold change	0.111 log2 fold change	0.022 log2 fold change	−0.320 log2 fold change					Z.CTG ([3]; dose 0.08 uM): 0.130; Z.CTG ([3]; dose 0.40 uM): 0.266; Z.CTG ([3]; dose 2.00 uM): 0.053; Z.CTG ([3]; dose 10.00 uM): −0.764
O=C1[C@H](Cc2ccc(O)cc2)N2C(=O)CCN(C(=O)NCc3ccccc3)[C@H]2CN1Cc1cccc2ccccc12 [ICG-001]																				−1.093	Dose.FC.LYZ.NS (log2 fold change) ([1]; primary screen, dose 0.08 uM): 0.037; Z.LYZ.NS (standard z score) ([1]; primary screen, dose 0.08 uM): 0.324; Dose.FC.LYZ.NS (log2 fold change) ([1]; primary screen, dose 0.40 uM): 0.037; Z.LYZ.NS (standard z score) ([1]; primary screen, dose 0.40 uM): 0.321; Dose.FC.LYZ.NS (log2 fold change) ([1]; primary screen, dose 2.00 uM): 0.045; Z.LYZ.NS (standard z score) ([1]; primary screen, dose 2.00 uM): 0.396; Dose.FC.LYZ.NS (log2 fold change) ([1]; primary screen, dose 10.00 uM): −0.125; Dose.FC.LYZ.S (log2 fold change) ([2]; dose 0.08 uM): 0.163; Dose.FC.LYZ.S (log2 fold change) ([2]; dose 0.40 uM): 0.204; Dose.FC.LYZ.S (log2 fold change) ([2]; dose 2.00 uM): 0.017; Dose.FC.LYZ.S (log2 fold change) ([2]; dose 10.00 uM): −0.124; Dose.FC.CTG (log2 fold change) ([3]; dose 0.08 uM): 0.104; Z.CTG (standard z score) ([3]; dose 0.08 uM): 0.249; Dose.FC.CTG (log2 fold change) ([3]; dose 0.40 uM): 0.104; Z.CTG (standard z score) ([3]; dose 0.40 uM): 0.248; Dose.FC.CTG (log2 fold change) ([3]; dose 2.00 uM): 0.143; Z.CTG (standard z score) ([3]; dose 2.00 uM): 0.343; Dose.FC.CTG (log2 fold change) ([3]; dose 10.00 uM): −0.416; Z.CTG (standard z score) ([3]; dose 10.00 uM): −0.993
Clc1ccccc1CN1CCc2sccc2C1 [Ticlopidine HCl]																	0.043 log2 fold change	0.010 log2 fold change	−0.002 log2 fold change	−0.308	Z.LYZ.NS (standard z score) ([1]; primary screen, dose 0.08 uM): 0.373; Z.LYZ.NS (standard z score) ([1]; primary screen, dose 0.40 uM): 0.084; Z.LYZ.NS (standard z score) ([1]; primary screen, dose 2.00 uM): −0.018; Dose.FC.LYZ.NS ([1]; primary screen, dose 10.00 uM): −0.035 log2 fold change; Dose.FC.LYZ.S ([2]; dose 0.08 uM): 0.052 log2 fold change; Dose.FC.LYZ.S ([2]; dose 0.40 uM): 0.072 log2 fold change; Dose.FC.LYZ.S ([2]; dose 2.00 uM): −0.022 log2 fold change; Dose.FC.LYZ.S ([2]; dose 10.00 uM): 0.076 log2 fold change; Dose.FC.CTG ([3]; dose 0.08 uM): −0.118 log2 fold change; Dose.FC.CTG ([3]; dose 0.40 uM): −0.041 log2 fold change; Dose.FC.CTG ([3]; dose 2.00 uM): −0.234 log2 fold change; Dose.FC.CTG ([3]; dose 10.00 uM): −0.005 log2 fold change
